“Also recorded” adds a separate entry of the source. Counter-ions that a name gives are not always drawn. Like-named read-outs stand apart in the source and are kept apart here.
Experiments:
Sprague-Dawley rats [1] = system: Sprague-Dawley rats
Method: The study was conducted in four phases (Phase I, II/IIB, III and IV/IVB) via various methods of intravenous injection to rats. The intravenous route is the route of administration for the final finished product in human subjects. […] Phase III was conducted to evaluate repeat dosing using a Sponsor prepared human clinical formulation.
Phase I (Dose escalation): The test item dose formulation was administered in an escalating dose fashion by slow intravenous injection (over approximately 2 minutes) into the tail vein using a hypodermic needle attached to a syringe. A minimum 24-hour observation period was allowed between successive doses. The dose volume was 5 mL/kg for all animals. […] The protocol is described in Table 2.
Sprague-Dawley rats were used for all of the experiments.

Sprague-Dawley rats [2] = settings: rat, in vivo
Sprague-Dawley rats [3] = settings: Phase IV
[4] = system: subjects with acute urticaria; settings: for Developed other symptoms: No / Developed other symptoms: Yes / Needed additional medication: No / Needed additional medication: Yes / Needed medication prescribed at discharge: No / Needed medication prescribed at discharge: No medication prescribed / Needed medication prescribed at discharge: Yes / Recurrence of allergic symptoms: No / Recurrence of allergic symptoms: Yes / Returned to normal activity: No / Returned to normal activity: Yes: ITT; for Patient-rated pruritus severity score, 2 Hour Change from Baseline, mean (primary efficacy measure): LOCF; for Patient-rated pruritus severity score, 2 Hour Change from Baseline, mean (primary efficacy measure) / Time spent at the treatment center, Mean (SD): acetic acid, dihydrochloride
[5] = injection; cited from earlier work
[6] = system: adult and pediatric patients; settings: cited from earlier work
[7] = Sprague-Dawley, 30 mg/kg/day, 7 days
[8] = 24 hrs after discharge, count (percentage)
[9] = 48 hrs after discharge, count (percentage)
[10] = ITT Population, listed as Cetirizine Injection
[11] = ITT Population, before treatment
[12] = ITT Population, count (percentage)

O=C(O)COCCN1CCN(C(c2ccccc2)c2ccc(Cl)cc2)CC1 (racemic) [cetirizine dihydrochloride, (±)-[2-[4-[(4-chlorophenyl)phenylmethyl]-1-piperazinyl]ethoxy] acetic acid, dihydrochloride]
Animals found dead (Sprague-Dawley rats [1]; Sprague-Dawley, rat, in vivo, 50 mg/kg): 2/4
Mortality dose level as multiple of human clinical dose (Sprague-Dawley rats [1]; Sprague-Dawley, rat, in vivo, 14 days): 58 times of human clinical dose
Animals found dead (Sprague-Dawley rats [1]; rat, in vivo, 100 mg/kg): ¾
Dose levels associated with mortality (Sprague-Dawley rats [1]; single IV injection, tail vein): ≥ 50 mg/kg
Animals with findings at the dosing site (tail), dark area (Sprague-Dawley rats [2]; [7]): 2/10
Enlargement of bronchial lymph node (Sprague-Dawley rats [2]; [7]): 2/10
Animals affected by macroscopic findings at the dosing site (tail) (Sprague-Dawley rats [2]; Sprague-Dawley, 2 days): 8/10
Dark focus/area/mottling at the dosing site (Sprague-Dawley rats [2]; Sprague-Dawley, 2 days): 8/10
Scab at the dosing site (Sprague-Dawley rats [2]; Sprague-Dawley, 2 days): 1/10
Thickening at the dosing site (Sprague-Dawley rats [2]; Sprague-Dawley, 2 days): 6/10
Body weight (Sprague-Dawley rats [2]): no test item related effects noted
Other clinical signs (Sprague-Dawley rats [3]; 30 mg/kg/day, as of Day 1, acetic acid, dihydrochloride, 30 mg/kg/day): Increases in activity and changes in posture (hunched back); also recorded: Changes in posture and increased activity were noted
Dark focus of the lungs (Sprague-Dawley rats [3]; necropsy): 2/4
Macroscopic findings at the dosing site (Sprague-Dawley rats [3]; necropsy): no findings at the dosing site were observed
Developed other symptoms: No [4, 8]: 108 (85.04)
Developed other symptoms: Yes [4, 8]: 12 (9.45)
Needed additional medication: No [4, 8]: 94 (74.02)
Needed additional medication: Yes [4, 8]: 26 (20.47)
Needed medication prescribed at discharge: No [4, 8]: 41 (32.28)
Needed medication prescribed at discharge: No medication prescribed [4, 8]: 10 (7.87)
Needed medication prescribed at discharge: Yes [4, 8]: 69 (54.33)
Recurrence of allergic symptoms: No [4, 8]: 66 (51.97)
Recurrence of allergic symptoms: Yes [4, 8]: 54 (42.52)
Returned to normal activity: No [4, 8]: 17 (13.39)
Returned to normal activity: Yes [4, 8]: 103 (81.10)
Developed other symptoms: No [4, 9]: 111 (87.40)
Developed other symptoms: Yes [4, 9]: 10 (7.87)
Needed additional medication: No [4, 9]: 102 (80.31)
Needed additional medication: Yes [4, 9]: 19 (14.96)
Needed medication prescribed at discharge: No [4, 9]: 46 (36.22)
Needed medication prescribed at discharge: No medication prescribed [4, 9]: 11 (8.66)
Needed medication prescribed at discharge: Yes [4, 9]: 64 (50.39)
Recurrence of allergic symptoms: No [4, 9]: 85 (66.93)
Recurrence of allergic symptoms: Yes [4, 9]: 36 (28.35)
Returned to normal activity: No [4, 9]: 9 (7.09)
Returned to normal activity: Yes [4, 9]: 112 (88.19)
Course of subject-rated sedation scores after treatment ([4]; ITT Population): returning to baseline sedation by 2 hrs
Patient-rated pruritus severity score, 1 Hour Assessment, mean ([4]; ITT Population): 0.81
Patient-rated pruritus severity score, 1 Hour Change from Baseline, mean ([4]; ITT Population): −1.39
Patient-rated pruritus severity score, 2 Hour Assessment, mean ([4]; ITT Population): 0.60
Patient-rated pruritus severity score, Discharge Assessment, mean ([4]; ITT Population): 0.58
Patient-rated pruritus severity score, Discharge Change from Baseline, mean ([4]; ITT Population): −1.62
Physician-rated urticaria/erythema score, 1 Hour Assessment, mean ([4]; ITT Population): 1.27
Physician-rated urticaria/erythema score, 1 Hour Change from Baseline, mean ([4]; ITT Population): −0.54
Physician-rated urticaria/erythema score, 2 Hour Assessment, mean ([4]; ITT Population): 1.19
Physician-rated urticaria/erythema score, 2 Hour Change from Baseline, mean ([4]; ITT Population): −0.63
Physician-rated urticaria/erythema score, Discharge Assessment, mean ([4]; ITT Population): 1.17
Physician-rated urticaria/erythema score, Discharge Change from Baseline, mean ([4]; ITT Population): −0.65
Subject-rated sedation score, 1 Hour Assessment, mean ([4]; ITT Population): 0.62
Subject-rated sedation score, 1 Hour Change from Baseline, mean ([4]; ITT Population): 0.24
Subject-rated sedation score, 2 Hour Assessment, mean ([4]; ITT Population): 0.46
Subject-rated sedation score, 2 Hour Change from Baseline, mean ([4]; ITT Population): 0.08
Subject-rated sedation score, Discharge Assessment, mean ([4]; ITT Population): 0.46
Subject-rated sedation score, Discharge Change from Baseline, mean ([4]; ITT Population): 0.08
Time spent at the treatment center, Median ([4]; ITT Population): 1.42 h
Time spent at the treatment center shorter than with diphenhydramine injection ([4]; ITT Population analysis): 22 min
Patient-rated pruritus severity score, 2 Hour Change from Baseline, mean (primary efficacy measure) ([4]; ITT Population): −1.61 (0.944)
Patient-rated pruritus severity score, 2 Hour Change from Baseline, mean (primary efficacy measure) [4, 10]: −1.61
Patient-rated pruritus severity score, Baseline Assessment, mean [4, 11]: 2.20
Physician-rated urticaria/erythema score, Baseline Assessment, mean [4, 11]: 1.81
Subject-rated sedation score, Baseline Assessment, mean [4, 11]: 0.39
Subjects who returned to the treatment center: No [4, 12]: 120 (94.49)
Subjects who returned to the treatment center: Yes [4, 12]: 7 (5.51)
Time spent at the treatment center, Mean (SD) [4, 10]: 1.71 (0.868) Hours
Time spent at the treatment center, Mean (SD) ([4]; ITT Population, listed as injectable cetirizine): 1.7 (0.9) Hours
Effectively treated subjects, yes ([4]; Investigator's opinion, count (percentage)): 103 (81.10)
Time spent at the treatment center shorter than with diphenhydramine injection ([4]; PP Population analysis): 27 min
Proportion of patients returning to any emergency department or clinic ([4]; clinical trials, treatment group): 6%
Subjects needed rescue drug, yes ([4]; count (percentage)): 19 (14.96)
Least squares estimated treatment difference, 2 hr change in pruritus severity score ([4]; diphenhydramine-cetirizine, 95% CI=−0.281, 0.396): 0.06
Effectiveness compared to diphenhydramine injection ([4]; non-inferiority margin −0.50, 2 hr pruritus change): non-inferior
Pruritus treatment success, yes ([4]; score reduction of at least 1 unit at 2 hr, count (percentage)): 110 (86.61)
Hemolysis [5]: free of hemolysis
Most commonly reported adverse reactions in adult overdose cases ([6]; oral doses of 70 mg to 800 mg, patients 18 to 81 years): somnolence and fatigue
Adverse reactions reported in pediatric overdose cases ([6]; oral doses of 90 mg to 300 mg, patients 18 months to 15 years): somnolence, difficulty walking, agitation/irritability, hard to swallow/articulate clearly, tachycardia, vomiting, mydriasis, and elevated creatinine phosphokinase

Source: US12268685B2, “Dosing regimen for injectable cetirizine” (JDP THERAPEUTICS LLC, priority 2019, dated 2025)
